From PubChem BioAssay AID296 (DTP/NCI, 2004)
Records with an inconclusive call do not appear.

Tested on: MX-1 breast xenograft, nude mice, tumor weight T/C
Assay: NCI In Vivo Anticancer Drug Screen. Data for tumor model Human Mammary Carcinoma MX-1 Xenograft (intrarenal inoculation) in NU/NU Swiss (nude) mice
Settings: endpoint: mean tumor weight change, higher = larger tumour
Summary of the method: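 Antitumour effect measured in vivo against vehicle controls, expressed as T/C.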

[1] = dose: 300.0 mg/kg/injection, schedule: Q04DX003 (sc), vehicle: saline with Tween-80
[2] = dose: 600.0 mg/kg/injection, schedule: Q04DX003 (sc), vehicle: saline with Tween-80
[3] = dose: 1200.0 mg/kg/injection, schedule: Q04DX003 (sc), vehicle: saline with Tween-80
[4] = dose: 200.0 mg/kg/injection, schedule: Q04DX003 (sc), vehicle: Klucel (hydroxypropylcellulose) (HPC)

## O=C(c1cccnc1)c1cc(-c2ccccn2)c(=O)n2ccccc12
[1]
  T/C: 66 % of control
[2]
  T/C: 103 % of control
[3]
  T/C: 81 % of control
dose: 2400.0 mg/kg/injection, schedule: Q04DX003 (sc), vehicle: saline with Tween-80
  T/C: 120 % of control

## CCN(CC)CCNc1ccc(C)c2sc3ccc(O)cc3c(=O)c12
[2]
  T/C: 67 % of control
[3]
  T/C: 57 % of control

## CC[C@](O)(C(=O)O)c1cc2n(c(=O)c1CO)Cc1cc3ccccc3nc1-2
dose: 8.0 mg/kg/injection, schedule: Q04DX003 (sc), vehicle: saline
  T/C: 2 % of control
dose: 16.0 mg/kg/injection, schedule: Q04DX003 (sc), vehicle: saline
  T/C: -92 % of control
dose: 32.0 mg/kg/injection, schedule: Q04DX003 (sc), vehicle: saline
  T/C: -89 % of control
dose: 64.0 mg/kg/injection, schedule: Q04DX003 (sc), vehicle: saline
  T/C: -100 % of control

## O=C(O)C1(NO)CCCCC1
[4]
  T/C: 110 % of control
dose: 400.0 mg/kg/injection, schedule: Q04DX003 (sc), vehicle: Klucel (hydroxypropylcellulose) (HPC)
  T/C: 100 % of control
dose: 800.0 mg/kg/injection, schedule: Q04DX003 (sc), vehicle: Klucel (hydroxypropylcellulose) (HPC)
  T/C: 123 % of control
dose: 1600.0 mg/kg/injection, schedule: Q04DX003 (sc), vehicle: Klucel (hydroxypropylcellulose) (HPC)
  T/C: 64 % of control

## O=C(C1CO1)C(Cl)(Cl)Cl (stereo not drawn)
dose: 150.0 mg/kg/injection, schedule: Q04DX003 (sc), vehicle: saline
  T/C: 64 % of control

## CN(CCN(C)C(=O)CCOS(C)(=O)=O)C(=O)CCOS(C)(=O)=O
dose: 50.0 mg/kg/injection, schedule: Q04DX003 (sc), vehicle: saline with Tween-80
  T/C: 41 % of control
dose: 50.0 mg/kg/injection, schedule: Q04DX003 (sc), vehicle: suspension in saline
  T/C: 16 % of control
dose: 100.0 mg/kg/injection, schedule: Q04DX003 (sc), vehicle: saline with Tween-80
  T/C: 1 % of control
dose: 100.0 mg/kg/injection, schedule: Q04DX003 (sc), vehicle: suspension in saline
  T/C: -86 % of control
dose: 200.0 mg/kg/injection, schedule: Q04DX003 (sc), vehicle: saline with Tween-80
  T/C: -65 % of control
dose: 200.0 mg/kg/injection, schedule: Q04DX003 (sc), vehicle: suspension in saline
  T/C: -100 % of control
dose: 400.0 mg/kg/injection, schedule: Q04DX003 (sc), vehicle: suspension in saline
  T/C: -100 % of control

## O=c1[nH]c(=O)c2nc(-c3cccnc3)cnc2[nH]1
[4]
  T/C: 36 % of control

## Nc1nc(N)c2cc(CNc3ccc(C(=O)NC(CC(=O)O)CC(=O)O)cc3)ccc2n1
dose: 25.0 mg/kg/injection, schedule: Q04DX003 (sc), vehicle: Klucel (hydroxypropylcellulose) (HPC)
  T/C: 86 % of control
dose: 50.0 mg/kg/injection, schedule: Q04DX003 (sc), vehicle: Klucel (hydroxypropylcellulose) (HPC)
  T/C: 96 % of control
dose: 100.0 mg/kg/injection, schedule: Q04DX003 (sc), vehicle: Klucel (hydroxypropylcellulose) (HPC)
  T/C: 75 % of control
[4]
  T/C: 85 % of control

## C1=CCOCOC1
dose: 150.0 mg/kg/injection, schedule: Q04DX003 (sc), vehicle: saline with Tween-80
  T/C: 71 % of control
[1]
  T/C: 70 % of control

## CC1=C(C)C(=O)O[C@@H]([C@](C)(O)[C@]2(O)CC[C@@]3(O)[C@@H]4C[C@H]5O[C@]56CC=CC(=O)[C@]6(C)[C@H]4CC[C@]23C)C1
dose: 75.0 mg/kg/injection, schedule: Q04DX003 (sc), vehicle: suspension in saline
  T/C: 112 % of control
dose: 150.0 mg/kg/injection, schedule: Q04DX003 (sc), vehicle: suspension in saline
  T/C: 83 % of control
dose: 300.0 mg/kg/injection, schedule: Q04DX003 (sc), vehicle: suspension in saline
  T/C: 83 % of control
dose: 600.0 mg/kg/injection, schedule: Q04DX003 (sc), vehicle: suspension in saline
  T/C: 95 % of control

## S=P(N1CC1)(N1CC1)N1CC1
dose: 4.0 mg/kg/injection, schedule: Q01DX010 (sc), vehicle: saline
  T/C: -94 % of control

## ClCCCCCCCCCCc1ccccc1
dose: 100.0 mg/kg/injection, schedule: Q01DX010 (sc), vehicle: Klucel (hydroxypropylcellulose) (HPC)
  T/C: 89 % of control
dose: 200.0 mg/kg/injection, schedule: Q01DX010 (sc), vehicle: Klucel (hydroxypropylcellulose) (HPC)
  T/C: 44 % of control
dose: 400.0 mg/kg/injection, schedule: Q01DX010 (sc), vehicle: Klucel (hydroxypropylcellulose) (HPC)
  T/C: 116 % of control
dose: 800.0 mg/kg/injection, schedule: Q01DX010 (sc), vehicle: Klucel (hydroxypropylcellulose) (HPC)
  T/C: 93 % of control
